Measured values: ChEMBL document CHEMBL4316596, “Antimicrobial Peptides with High Proteolytic Resistance for Combating Gram-Negative Bacteria” (J Med Chem, 2019)
Calls of active or inactive are those of the source. The calls are words filed in the database; no cut-off is given here.

Assays:
[1] = system: Escherichia coli; assay: Antimicrobial activity against Escherichia coli ATCC 25922 after 24 hrs by NCCLS-protocol based assay; type: functional; settings: ATCC 25922, 24 h
[2] = system: Escherichia coli; assay: Antimicrobial activity against Escherichia coli UB1005 after 24 hrs by NCCLS-protocol based assay; type: functional; settings: UB1005, 24 h
[3] = system: Escherichia coli; assay: Antimicrobial activity against Escherichia coli 078 after 24 hrs by NCCLS-protocol based assay; type: functional; settings: Escherichia coli, 078, 24 h
[4] = system: Escherichia coli; assay: Antimicrobial activity against Escherichia coli K88 after 24 hrs by NCCLS-protocol based assay; type: functional; settings: K88, 24 h
[5] = system: Escherichia coli; assay: Antimicrobial activity against Escherichia coli K99 after 24 hrs by NCCLS-protocol based assay; type: functional; settings: K99, 24 h
[6] = system: Pseudomonas aeruginosa; assay: Antimicrobial activity against Pseudomonas aeruginosa ATCC 27853 after 24 hrs by NCCLS-protocol based assay; type: functional; settings: ATCC 27853, 24 h
[7] = system: Pseudomonas aeruginosa; assay: Antimicrobial activity against Pseudomonas aeruginosa PAO1 after 24 hrs by NCCLS-protocol based assay; type: functional; settings: PAO1, 24 h
[8] = system: Pseudomonas aeruginosa; assay: Antimicrobial activity against Pseudomonas aeruginosa CICC 21630 clinical isolates after 24 hrs by NCCLS-protocol based assay; type: functional; settings: CICC 21630, 24 h
[9] = system: Pseudomonas aeruginosa; assay: Antimicrobial activity against Pseudomonas aeruginosa CICC 21625 clinical isolates after 24 hrs by NCCLS-protocol based assay; type: functional; settings: CICC 21625, 24 h
[10] = system: Salmonella typhimurium; assay: Antimicrobial activity against Salmonella typhimurium ATCC 14028 after 24 hrs by NCCLS-protocol based assay; type: functional, Salmonella enterica subsp. enterica serovar Typhimurium; settings: Salmonella enterica, ATCC 14028, 24 h
[11] = Antimicrobial activity against Salmonella pullorum C7913 after 24 hrs by NCCLS-protocol based assay; type: functional, Salmonella enterica subsp. enterica serovar Pullorum; settings: Salmonella enterica, C7913, 24 h
[12] = system: Klebsiella pneumoniae; assay: Antimicrobial activity against Klebsiella pneumoniae after 24 hrs by NCCLS-protocol based assay; type: functional
[13] = system: Pseudomonas aeruginosa; assay: Antimicrobial activity against Pseudomonas aeruginosa ATCC 27853 at sub-MBC after 60 passages; type: functional, organism-based
[14] = system: Erythrocyte; assay: Hemolytic activity against human RBC after 1 hr; type: ADME, cell-based
[15] = system: RAW264.7; assay: Cytotoxicity against mouse RAW264.7 cells assessed as cell death after 18 to 24 hrs by MTT assay; type: cell-based
[16] = system: Escherichia coli; assay: Bactericidal activity against Escherichia coli ATCC 25922 incubated for 4 hrs followed by culture spread on agar plates and cultured overnight; type: functional; settings: ATCC 25922, 4 h, read-out: MBC>99.9
[17] = Selectivity ratio of IC50 for mouse RAW264.7 cells to geometric mean of the peptide MBC for bacteria
[18] = system: Escherichia coli; assay: Bactericidal activity against Escherichia coli ATCC 25922 incubated for 4 hrs followed by culture spread on agar plates and cultured overnight in presence of KCl; type: functional; settings: ATCC 25922, 4 h, read-out: MBC>99.9
[19] = system: Escherichia coli; assay: Bactericidal activity against Escherichia coli ATCC 25922 incubated for 4 hrs followed by culture spread on agar plates and cultured overnight in presence of ZnCl2; type: functional; settings: ATCC 25922, 4 h, read-out: MBC>99.9
[20] = system: Escherichia coli; assay: Bactericidal activity against Escherichia coli ATCC 25922 incubated for 4 hrs followed by culture spread on agar plates and cultured overnight in presence of 25% serum albumin; type: functional; settings: ATCC 25922, 4 h, read-out: MBC>99.9
[21] = system: Escherichia coli; assay: Bactericidal activity against Escherichia coli ATCC 25922 incubated for 4 hrs followed by culture spread on agar plates and cultured overnight in presence of 12.5% serum albumin; type: functional; settings: ATCC 25922, 4 h, read-out: MBC>99.9
[22] = system: Escherichia coli; assay: Bactericidal activity against Escherichia coli ATCC 25922 incubated for 4 hrs followed by culture spread on agar plates and cultured overnight in presence of 4 mg/ml trypsin; type: functional; settings: ATCC 25922, 4 h, read-out: MBC>99.9
[23] = system: Escherichia coli; assay: Bactericidal activity against Escherichia coli ATCC 25922 incubated for 4 hrs followed by culture spread on agar plates and cultured overnight in presence of 0.5 mg/ml trypsin; type: functional; settings: ATCC 25922, 4 h, read-out: MBC>99.9
[24] = system: Escherichia coli; assay: Bactericidal activity against Escherichia coli ATCC 25922 incubated for 4 hrs followed by culture spread on agar plates and cultured overnight in presence of 0.25 mg/ml trypsin; type: functional; settings: ATCC 25922, 4 h, read-out: MBC>99.9
[25] = system: Escherichia coli; assay: Bactericidal activity against Escherichia coli ATCC 25922 incubated for 4 hrs followed by culture spread on agar plates and cultured overnight in presence of 0.125 mg/ml trypsin; type: functional; settings: ATCC 25922, 4 h, read-out: MBC>99.9
[26] = system: Escherichia coli; assay: Bactericidal activity against Escherichia coli ATCC 25922 incubated for 4 hrs followed by culture spread on agar plates and cultured overnight in presence of 4 mg/ml chymotrypsin; type: functional; settings: ATCC 25922, 4 h, read-out: MBC>99.9
[27] = system: Escherichia coli; assay: Bactericidal activity against Escherichia coli ATCC 25922 incubated for 4 hrs followed by culture spread on agar plates and cultured overnight in presence of 2 mg/ml chymotrypsin; type: functional; settings: ATCC 25922, 4 h, read-out: MBC>99.9
[28] = system: Escherichia coli; assay: Bactericidal activity against Escherichia coli ATCC 25922 incubated for 4 hrs followed by culture spread on agar plates and cultured overnight in presence of 0.5 mg/ml chymotrypsin; type: functional; settings: ATCC 25922, 4 h, read-out: MBC>99.9
[29] = system: Escherichia coli; assay: Bactericidal activity against Escherichia coli ATCC 25922 incubated for 4 hrs followed by culture spread on agar plates and cultured overnight in presence of 0.125 mg/ml chymotrypsin; type: functional; settings: ATCC 25922, 4 h, read-out: MBC>99.9
[30] = system: Escherichia coli; assay: Antibacterial activity against Escherichia coli ATCC 25922 infected in ICR mouse assessed as log reduction in bacterial cells in peritoneal cavity at 5 mg/kg, ip administered at 5 mg/kg, ip dosed at 0.5, 2, 4 and 8 hrs post-infection; type: functional
[31] = system: Escherichia coli; assay: Antibacterial activity against Escherichia coli ATCC 25922 infected in ICR mouse assessed as mouse survival at 5 mg/kg, ip dosed at 0.5, 2, 4 and 8 hrs post-infection; type: functional; settings: ATCC 25922, ip
[32] = system: Escherichia coli; assay: Bactericidal activity against Escherichia coli ATCC 25922 incubated for 4 hrs followed by culture spread on agar plates and cultured overnight in presence of 4 mg/ml pepsin; type: functional, organism-based
[33] = system: Escherichia coli; assay: Bactericidal activity against Escherichia coli UB1005 incubated for 4 hrs followed by culture spread on agar plates and cultured overnight; type: functional; settings: UB1005, 4 h, read-out: MBC>99.9
[34] = system: Escherichia coli; assay: Bactericidal activity against Escherichia coli K88 incubated for 4 hrs followed by culture spread on agar plates and cultured overnight; type: functional; settings: K88, 4 h, read-out: MBC>99.9
[35] = system: Escherichia coli; assay: Bactericidal activity against Escherichia coli K99 incubated for 4 hrs followed by culture spread on agar plates and cultured overnight; type: functional; settings: K99, 4 h, read-out: MBC>99.9
[36] = system: Pseudomonas aeruginosa; assay: Bactericidal activity against Pseudomonas aeruginosa CICC 21630 clinical isolates incubated for 4 hrs followed by culture spread on agar plates and cultured overnight; type: functional; settings: CICC 21630, 4 h, read-out: MBC>99.9
[37] = system: Salmonella typhimurium; assay: Bactericidal activity against Salmonella typhimurium C7731 incubated for 4 hrs followed by culture spread on agar plates and cultured overnight; type: functional, Salmonella enterica subsp. enterica serovar Typhimurium; settings: Salmonella enterica, C7731, 4 h; read-out: MBC>99.9
[38] = Bactericidal activity against Salmonella pullorum C7913 incubated for 4 hrs followed by culture spread on agar plates and cultured overnight; type: functional, Salmonella enterica subsp. enterica serovar Pullorum; settings: Salmonella enterica, C7913, 4 h; read-out: MBC>99.9
[39] = system: Acinetobacter baumannii; assay: Bactericidal activity against Acinetobacter baumannii incubated for 4 hrs followed by culture spread on agar plates and cultured overnight; type: functional; settings: read-out: MBC>99.9
[40] = system: Klebsiella pneumoniae; assay: Bactericidal activity against Klebsiella pneumoniae incubated for 4 hrs followed by culture spread on agar plates and cultured overnight; type: functional; settings: read-out: MBC>99.9
[41] = Stability of the compound assessed as pepsin (unknown origin)-mediated compound hydrolysis after 8 hrs by SDS-PAGE analysis; type: ADME; settings: human

H-IRPIIRPIIRPIIRPIIRPIIRPIIRPI-NH2
MIC95 [1]: 1 µM | MIC95 [2]: 2 µM | MIC95 [3]: 1 µM | MIC95 [4]: 1 µM | MIC95 [5]: 1 µM | MIC95 [6]: 4 µM | MIC95 [7]: 4 µM | MIC95 [8]: 32 µM | MIC95 [9]: 64 µM | MIC95 [10]: 2 µM | MIC95 [11]: 2 µM | MIC95 [12]: 2 µM | Activity [13]: Active | HC10 [14]: > 128 µM | IC50 [15]: 5650 µM | MBC [16]: 2 µM | Ratio [17]: 1136.22 | MBC [18]: 2 µM | MBC [19]: 2 µM | MBC [20]: 8 µM | MBC [21]: 8 µM | MBC [22]: 2 µM | MBC [23]: 2 µM | MBC [24]: 2 µM | MBC [25]: 2 µM | MBC [26]: 2 µM | MBC [27]: 2 µM | MBC [28]: 2 µM | MBC [29]: 2 µM | log(activity) [30]: 5 | survival at 5 mg/kg [31]: 75% | Activity [32]: Active | MBC [33]: 2 µM | MBC [34]: 1 µM | MBC [35]: 2 µM | MBC [36]: 32 µM | MBC [37]: 2 µM | MBC [38]: 4 µM | MBC [39]: 1 µM | MBC [40]: 4 µM | Stability [41]: Stable

H-LKPLLKPLLKPLLKPLLKPLLKPLLKPL-NH2
MIC95 [1]: 0.5 µM | MIC95 [2]: 1 µM | MIC95 [3]: 2 µM | MIC95 [4]: 0.5 µM | MIC95 [5]: 1 µM | MIC95 [6]: 2 µM | MIC95 [7]: 1 µM | MIC95 [8]: 2 µM | MIC95 [9]: 8 µM | MIC95 [10]: 1 µM | MIC95 [11]: 2 µM | MIC95 [12]: 1 µM | Activity [13]: Active | HC10 [14]: > 128 µM | IC50 [15]: 1.56 µM | MBC [16]: 1 µM | Ratio [17]: 0.58 | MBC [18]: 1 µM | MBC [19]: 1 µM | MBC [20]: 8 µM | MBC [21]: 2 µM | MBC [22]: 1 µM | MBC [23]: 1 µM | MBC [24]: 1 µM | MBC [25]: 1 µM | MBC [26]: > 64 µM | MBC [27]: 1 µM | MBC [28]: 1 µM | MBC [29]: 1 µM | log(activity) [30]: 1 | survival at 5 mg/kg [31]: 37.5% | Activity [32]: inactive | MBC [33]: 2 µM | MBC [34]: 1 µM | MBC [35]: 2 µM | MBC [36]: 8 µM | MBC [37]: 2 µM | MBC [38]: 4 µM | MBC [39]: 1 µM | MBC [40]: 2 µM | Stability [41]: Unstable

H-LRPLLRPLLRPLLRPLLRPLLRPLLRPL-NH2
MIC95 [1]: 1 µM | MIC95 [2]: 2 µM | MIC95 [3]: 1 µM | MIC95 [4]: 1 µM | MIC95 [5]: 1 µM | MIC95 [6]: 1 µM | MIC95 [7]: 1 µM | MIC95 [8]: 2 µM | MIC95 [9]: 8 µM | MIC95 [10]: 1 µM | MIC95 [11]: 1 µM | MIC95 [12]: 2 µM | Activity [13]: Active | HC10 [14]: 64 µM | IC50 [15]: 2.29 µM | MBC [16]: 2 µM | Ratio [17]: 0.89 | MBC [18]: 2 µM | MBC [19]: 2 µM | MBC [20]: 8 µM | MBC [21]: 4 µM | MBC [22]: 2 µM | MBC [23]: 2 µM | MBC [24]: 2 µM | MBC [25]: 2 µM | MBC [26]: > 64 µM | MBC [27]: > 64 µM | MBC [28]: 2 µM | MBC [29]: 2 µM | log(activity) [30]: 1 | survival at 5 mg/kg [31]: 37.5% | Activity [32]: inactive | MBC [33]: 2 µM | MBC [34]: 1 µM | MBC [35]: 2 µM | MBC [36]: 4 µM | MBC [37]: 2 µM | MBC [38]: 2 µM | MBC [39]: 1 µM | MBC [40]: 4 µM | Stability [41]: Unstable
